Measured values as given in patent publication US8778941B2, “TRPM8 antagonists and their use in treatments” (AMGEN Inc., priority 2011, dated 2014).

molecular target: T1, human TRPM8 (Homo sapiens, UniProt Q7Z2W7); experiment: Luminescence readout assay for measuring intracellular calcium (aequorin), hTRPM8 antagonism; format: cell-based; settings: CHO cell line expressing human TRPM8 and aequorin; activation by icilin, L-menthol or cold buffer (table does not say which)
T1 construct: expressed in transfected cells; host or cells: Chinese hamster ovary (CHO) cells, T-REx tetracycline-inducible expression system (Invitrogen), co-transfected with pcDNA3.1 jellyfish aequorin
T1 sequence (Q7Z2W7 whole entry): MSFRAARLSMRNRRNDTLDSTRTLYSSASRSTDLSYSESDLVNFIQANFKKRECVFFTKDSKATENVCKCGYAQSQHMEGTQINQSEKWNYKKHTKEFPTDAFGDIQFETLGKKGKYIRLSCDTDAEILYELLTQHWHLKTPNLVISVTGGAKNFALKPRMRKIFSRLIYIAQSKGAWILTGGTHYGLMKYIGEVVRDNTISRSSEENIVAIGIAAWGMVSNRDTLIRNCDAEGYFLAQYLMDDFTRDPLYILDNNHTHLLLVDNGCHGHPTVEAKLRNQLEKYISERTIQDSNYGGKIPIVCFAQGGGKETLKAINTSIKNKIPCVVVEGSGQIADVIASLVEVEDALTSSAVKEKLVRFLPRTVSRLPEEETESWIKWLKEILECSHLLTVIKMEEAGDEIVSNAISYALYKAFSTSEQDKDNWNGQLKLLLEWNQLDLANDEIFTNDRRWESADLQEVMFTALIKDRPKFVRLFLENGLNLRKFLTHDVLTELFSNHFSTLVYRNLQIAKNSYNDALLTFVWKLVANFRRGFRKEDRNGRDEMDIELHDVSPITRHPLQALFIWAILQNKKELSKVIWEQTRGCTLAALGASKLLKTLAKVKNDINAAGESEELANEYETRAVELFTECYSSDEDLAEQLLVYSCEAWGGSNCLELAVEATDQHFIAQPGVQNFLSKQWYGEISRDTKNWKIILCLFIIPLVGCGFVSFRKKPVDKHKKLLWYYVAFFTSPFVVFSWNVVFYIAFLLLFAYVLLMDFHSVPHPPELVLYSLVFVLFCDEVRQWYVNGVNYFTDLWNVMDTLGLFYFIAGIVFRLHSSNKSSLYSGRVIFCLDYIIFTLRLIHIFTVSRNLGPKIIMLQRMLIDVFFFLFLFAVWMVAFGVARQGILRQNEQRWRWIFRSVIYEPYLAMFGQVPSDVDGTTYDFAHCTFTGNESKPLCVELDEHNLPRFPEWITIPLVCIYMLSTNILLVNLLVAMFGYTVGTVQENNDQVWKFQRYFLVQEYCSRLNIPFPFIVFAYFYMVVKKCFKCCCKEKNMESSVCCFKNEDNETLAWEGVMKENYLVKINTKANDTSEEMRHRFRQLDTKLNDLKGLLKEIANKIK

IC50 [µM] | SMILES
1.25 | Cn1ccc(NC(=O)N[C@@H](c2ccc(C(F)(F)F)cc2)c2ncccc2F)cc1=O [Example 161, (S)-1-((3-fluoropyridin-2-yl)(4-(trifluoro-methyl)-phenyl)-methyl)-3-(1-methyl-2-oxo-1,2-dihydropyridin-4-yl)urea]
3.83 | Cc1cccc(CNC(=O)N[C@@H](c2ccc(C(F)(F)F)cc2)c2ncccc2C(F)(F)F)c1 [Example 147, (S)-1-(3-methylbenzyl)-3-((4-(trifluoro-methyl)-phenyl)(3-(trifluoro-methyl)-pyridin-2-yl)-methyl)urea (2,2,2-trifluoro-acetate)]
3.14 | CCOc1cccc(NC(=O)N[C@@H](c2ccc(C(F)(F)F)cc2)c2ncccc2C(F)(F)F)c1 [Example 126, (S)-1-(3-ethoxyphenyl)-3-((4-(trifluoro-methyl)-phenyl)(3-(trifluoro-methyl)-pyridin-2-yl)-methyl)urea (2,2,2-trifluoro-acetate)]
1.3 | Cc1ccc(NC(=O)N[C@@H](c2ccc(C(F)(F)F)cc2)c2ncccc2C(F)(F)F)cc1[N+](=O)[O-] [Example 140, (S)-1-(4-methyl-3-nitrophenyl)-3-((4-(trifluoro-methyl)-phenyl)(3-(trifluoro-methyl)-pyridin-2-yl)-methyl)urea (2,2,2-trifluoro-acetate)]
0.055 | O=C1Cc2cc(NC(=O)N[C@@H](c3ccc(C(F)(F)F)cc3)c3ncccc3F)ccc2N1 [Example 149]
0.062 | O=C(Nc1cncnc1)N[C@@H](c1ccc(C(F)(F)F)c(F)c1)c1ncccc1C(F)(F)F [Example 155, (S)-1-((3-fluoro-4-(trifluoro-methyl)-phenyl)(3-(trifluoro-methyl)-pyridin-2-yl)-methyl)-3-(pyrimidin-5-yl)urea (2,2,2-trifluoro-acetate)]
2.38 | COc1cc(CNC(=O)N[C@@H](c2ccc(C(F)(F)F)cc2)c2ncccc2C(F)(F)F)cc(OC)c1OC [Example 111, (S)-1-((4-(trifluoro-methyl)-phenyl)(3-(trifluoro-methyl)-pyridin-2-yl)-methyl)-3-(3,4,5-trimethoxy-benzyl)urea (2,2,2-trifluoro-acetate)]
0.474 | CC(C)(C)OC(=O)N[C@@H](c1ccc(OC(F)(F)F)c(F)c1)c1ncccc1F [Example 174, (S)-tert-Butyl((3-fluoro-4-(trifluoromethoxy)phenyl)(3-fluoropyridin-2-yl)methyl)carbamate]
0.221 | FC(F)(F)c1ccc([C@H](NC(=S)Nc2cccnc2)c2ncccc2C(F)(F)F)cc1 [Example 122, (S)-1-(pyridin-3-yl)-3-((4-(trifluoro-methyl)-phenyl)(3-(trifluoro-methyl)-pyridin-2-yl)-methyl)-thiourea]
0.19 | COc1ccc(OC)c(CCNC(=O)N[C@@H](c2ccc(C(F)(F)F)cc2)c2ncccc2C(F)(F)F)c1 [Example 110, (S)-1-(2,5-dimethoxy-phenethyl)-3-((4-(trifluoro-methyl)-phenyl)(3-(trifluoro-methyl)-pyridin-2-yl)-methyl)urea (2,2,2-trifluoro-acetate)]
3.24 | O=C(Nc1ccc(C(=O)O)cc1)N[C@@H](c1ccc(OC(F)(F)F)c(F)c1)c1ncccc1F [Example 180, (S)-4-(3-((3-Fluoro-4-(trifluoromethoxy)phenyl)(3-fluoropyridin-2-yl)methyl)ureido)benzoic acid]
1.07 | O=C(NCc1ccc(Cl)cc1)N[C@@H](c1ccc(C(F)(F)F)cc1)c1ncccc1C(F)(F)F [Example 134, (S)-1-(4-chlorobenzyl)-3-((4-(trifluoro-methyl)-phenyl)(3-(trifluoro-methyl)-pyridin-2-yl)-methyl)urea (2,2,2-trifluoro-acetate)]
0.068 | CC(C)OC(=O)N[C@@H](c1ccc(OC(F)(F)F)c(F)c1)c1ncccc1F [Example 175, (S)-isopropyl ((3-fluoro-4-(trifluoromethoxy)phenyl)(3-fluoropyridin-2-yl)methyl)carbamate]

The next lines start with the compound.

SMILES | IC50 [µM]
O=C(Nc1cccnc1)N[C@@H](c1cccc(F)c1)c1ncccc1C(F)(F)F [Example 8, (S)-1-((3-fluorophenyl)-(3-(trifluoro-methyl)-pyridin-2-yl)-methyl)-3-(pyridin-3-yl)-urea] | 0.593
CCOC(=O)[C@H](C)NC(=O)N[C@@H](c1ccc(C(F)(F)F)cc1)c1ncccc1C(F)(F)F [Example 94, (S)-ethyl 2-(3-((S)-(4-(trifluoro-methyl)-phenyl)(3-(trifluoro-methyl)-pyridin-2-yl)-ureido)-propanoate (2,2,2-trifluoro-acetate)] | 1.71
O=C(Nc1cccnc1)N[C@@H](c1cnc2c(F)cccc2c1)c1ncccc1C(F)(F)F [Example 14, (S)-1-((8-fluoro-quinolin-3-yl)-(3-(trifluoro-methyl)-pyridin-2-yl)-methyl)-3-(pyridin-3-yl)-urea] | 0.533
C=C(C)c1cccc(C(C)(C)NC(=O)N[C@@H](c2ccc(C(F)(F)F)cc2)c2ncccc2C(F)(F)F)c1 [Example 105, (S)-1-(2-(3-(prop-1-en-2-yl)phenyl)-propan-2-yl)-3-((4-(trifluoro-methyl)-phenyl)(3-(trifluoro-methyl)-pyridin-2-yl)-methyl)urea (2,2,2-trifluoro-acetate)] | 0.545
COC(=O)c1cc(NC(=O)N[C@@H](c2ccc(C(F)(F)F)cc2)c2ncccc2C(F)(F)F)cc(C(=O)OC)c1 [Example 103, (S)-dimethyl 5-(3-((4-(trifluoro-methyl)-phenyl)(3-(trifluoro-methyl)-pyridin-2-yl)-methyl)-ureido)-isophthalate (2,2,2-trifluoro-acetate)] | 0.527
CC(C)(C)NC(=O)N[C@@H](c1ccc(C(F)(F)F)cc1)c1ncccc1C(F)(F)F [Example 45, (S)-1-(tert-butyl)-3-((4-(trifluoro-methyl)-phenyl)(3-(trifluoro-methyl)-pyridin-2-yl)-methyl)urea] | 0.053
O=C(Nc1cccnc1)NC(c1cc(F)cc(Cl)c1)c1ncccc1C(F)(F)F (centres unmarked) [Example 23, 1-((3-chloro-5-fluoro-phenyl)(3-(trifluoro-methyl)-pyridin-2-yl)-methyl)-3-(pyridin-3-yl)-urea (2,2,2-trifluoro-acetate)] | 0.255
CCOC(=O)CCNC(=O)N[C@@H](c1ccc(C(F)(F)F)cc1)c1ncccc1C(F)(F)F [Example 66, (S)-ethyl 3-(3-((4-(trifluoro-methyl)-phenyl)(3-(trifluoro-methyl)-pyridin-2-yl)-methyl)-ureido)-propanoate (2,2,2-trifluoro-acetate)] | 0.905
O=C(NC1CCCOC1)N[C@@H](c1ccc(C(F)(F)F)cc1)c1ncccc1C(F)(F)F (stereo partly drawn) [Example 54, 1-(tetrahydro-2H-pyran-3-yl)-3-((S)-(4-(trifluoro-methyl)-phenyl)(3-(trifluoro-methyl)-pyridin-2-yl)-methyl)urea] | 0.397
COC(=O)[C@H](CCSC)NC(=O)N[C@@H](c1ccc(C(F)(F)F)cc1)c1ncccc1C(F)(F)F [Example 78, (S)-methyl 4-(methylthio)-2-(3-((S)-(4-(trifluoro-methyl)-phenyl)(3-(trifluoro-methyl)-pyridin-2-yl)-methyl)-ureido)-butanoate (2,2,2-trifluoro-acetate)] | 1.23
